Measurements: PubChem BioAssay (NCI)
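The compound was tested at five concentrations on cells cultured in 96-well plates, with a 48-hour exposure period. Abbreviation: GI50, concentration required for 50% inhibition of growth. TGI denotes the concentration required for complete inhibition of growth.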

Columns and labels:
Test in all cases: NCI tumour cell line growth inhibition, 48 h
[1] = test system: NCI/ADR-RES ovarian
[2] = test system: TK-10 renal
[3] = test system: PC-3 prostate
[4] = test system: MOLT-4 leukemia
[5] = test system: BT-549 breast
[6] = test system: HOP-62 NSCLC
[7] = test system: DU-145 prostate
[8] = test system: MDA-N
[9] = test system: IGROV1 ovarian
[10] = test system: KM12 colon
[11] = test system: MCF7 breast
[12] = test system: A549 NSCLC
[13] = test system: RPMI-8226 leukemia
[14] = test system: SK-MEL-5 melanoma
[15] = test system: MDA-MB-231 breast
[16] = test system: SN12C renal
[17] = test system: MDA-MB-435
[18] = test system: SNB-75 CNS
[19] = test system: HOP-92 NSCLC
[20] = test system: NCI-H23 lung
[21] = test system: SNB-19 CNS
[22] = test system: OVCAR-3 ovarian
[23] = test system: SK-MEL-2 melanoma
[24] = test system: SR leukemia
[25] = test system: MALME-3M melanoma
[26] = test system: UACC-62 melanoma
[27] = test system: SK-OV-3 ovarian
[28] = test system: HS 578T breast
[29] = test system: 786-0 renal
[30] = test system: HT29 colon
[31] = test system: CAKI-1 renal
[32] = test system: HCT-116 colon
[33] = test system: SF-268 CNS
[34] = test system: NCI-H460 lung
[35] = test system: EKVX NSCLC
[36] = test system: OVCAR-8 ovarian
[37] = test system: UACC-257 melanoma
[38] = test system: ACHN renal
[39] = test system: M14 melanoma
[40] = test system: SF-295 CNS
[41] = test system: OVCAR-5 ovarian
[42] = test system: NCI-H522 lung
[43] = test system: HL-60(TB) leukemia
[44] = test system: LOX IMVI melanoma
[45] = test system: A498 renal
[46] = test system: SK-MEL-28 melanoma
[47] = test system: HCC-2998 colon
[48] = test system: K-562 leukemia
[49] = test system: SF-539 CNS
[50] = test system: T-47D breast
[51] = test system: U251 CNS
[52] = test system: COLO 205 colon
[53] = test system: OVCAR-4 ovarian
[54] = test system: SW-620 colon
[55] = test system: CCRF-CEM leukemia
[56] = test system: UO-31 renal
[57] = test system: HCT-15 colon
[58] = test system: RXF 393 renal
[59] = test system: NCI-H226 lung

For CN(Cc1c2ccccc2cc2ccccc12)S(=O)(=O)c1ccc(-c2c3nc(c(-c4ccc(S(=O)(=O)N(C)Cc5c6ccccc6cc6ccccc56)cc4)c4ccc([nH]4)c(-c4ccc(S(=O)(=O)N(C)Cc5c6ccccc6cc6ccccc56)cc4)c4nc(c(-c5ccc(S(=O)(=O)N(C)Cc6c7ccccc7cc7ccccc67)cc5)c5ccc2[nH]5)C=C4)C=C3)cc1, the TGI [1] was over 100 µM, the TGI [2] was over 100 µM and the TGI [3] was over 100 µM. For the same molecule, the TGI [4] was over 100 µM, the TGI [5] was over 100 µM and the TGI [6] was 84.6 µM. The TGI [7] was over 100 µM, the TGI [8] was over 100 µM and the TGI [9] was over 100 µM. The TGI [10] was over 100 µM, the TGI [11] was over 100 µM and the TGI [12] was over 100 µM. For the same molecule, the TGI [13] was over 100 µM, the TGI [14] was over 100 µM and the TGI [15] was over 100 µM. It also gave a TGI [16] of over 100 µM, a TGI [17] of over 100 µM and a TGI [18] of 56.8 µM. It also gave a TGI [19] of 83.4 µM, a TGI [20] of over 100 µM and a TGI [21] of over 100 µM. It also gave a TGI [22] of over 100 µM, a TGI [23] of over 100 µM and a TGI [24] of over 100 µM. For the same molecule, the TGI [25] was over 100 µM, the TGI [26] was over 100 µM and the TGI [27] was over 100 µM. It also gave a TGI [28] of over 100 µM, a TGI [29] of over 100 µM and a TGI [30] of over 100 µM. The TGI [31] was over 100 µM, the TGI [32] was over 100 µM and the TGI [33] was over 100 µM. For the same molecule, the TGI [34] was over 100 µM, the TGI [35] was over 100 µM and the TGI [36] was over 100 µM. It also gave a TGI [37] of over 100 µM, a TGI [38] of over 100 µM and a TGI [39] of over 100 µM. The TGI [40] was over 100 µM, the TGI [41] was over 100 µM and the TGI [42] was over 100 µM. It also gave a TGI [43] of over 100 µM, a TGI [44] of over 100 µM and a TGI [45] of over 100 µM. It also gave a TGI [46] of over 100 µM, a TGI [47] of over 100 µM and a TGI [48] of over 100 µM. The TGI [49] was over 100 µM, the TGI [50] was over 100 µM and the TGI [51] was over 100 µM. For the same molecule, the TGI [52] was over 100 µM, the TGI [53] was over 100 µM and the TGI [54] was over 100 µM. It also gave a TGI [55] of over 100 µM, a TGI [56] of over 100 µM and a TGI [57] of over 100 µM. It also gave a TGI [58] of over 100 µM.

O=C(Nc1ccccc1)c1cc2c(cc1Cl)Sc1nccn1S2(=O)=O was tested, and the TGI [1] was over 100 µM, the TGI [2] was over 100 µM and the TGI [3] was over 70.1 µM. The TGI [4] was over 69 µM, the TGI [5] was 60.7 µM and the TGI [6] was over 59.8 µM. It also gave a TGI [7] of 40.5 µM, a TGI [8] of over 100 µM and a TGI [9] of over 72.1 µM. The TGI [10] was 54.4 µM, the TGI [11] was over 60 µM and the TGI [12] was over 100 µM. The TGI [13] was 70.5 µM, the TGI [14] was 31.1 µM and the TGI [15] was over 81.2 µM. For the same molecule, the TGI [16] was over 100 µM, the TGI [17] was 42.2 µM and the TGI [18] was 63.7 µM. The TGI [19] was 18.5 µM, the TGI [20] was 53.8 µM and the TGI [21] was over 100 µM. The TGI [22] was 59.3 µM, the TGI [23] was 58.3 µM and the TGI [24] was over 73 µM. It also gave a TGI [25] of 74.3 µM, a TGI [26] of 38.4 µM and a TGI [27] of over 100 µM. The TGI [28] was over 84.4 µM, the TGI [29] was 71.4 µM and the TGI [30] was over 75.6 µM. It also gave a TGI [31] of 7.53 µM, a TGI [32] of over 54.4 µM and a TGI [33] of over 89.8 µM. For the same molecule, the TGI [34] was over 60.6 µM, the TGI [35] was 60.5 µM and the GI50 [59] was 28.6 µM. For the same molecule, the TGI [59] was over 100 µM, the TGI [36] was over 100 µM and the TGI [37] was 53.7 µM. For the same molecule, the TGI [38] was over 83.1 µM, the TGI [39] was over 58.2 µM and the TGI [40] was over 100 µM. For the same molecule, the TGI [41] was over 86.3 µM, the TGI [42] was 38.6 µM and the TGI [43] was 56.1 µM. The TGI [44] was 39 µM, the TGI [45] was over 70.9 µM and the TGI [46] was 46.9 µM. The TGI [47] was 37.7 µM, the TGI [48] was over 100 µM and the TGI [49] was over 83.6 µM. The TGI [50] was over 72.9 µM, the TGI [51] was over 71.7 µM and the TGI [52] was over 56.6 µM. The TGI [53] was 99.9 µM, the TGI [54] was over 78.9 µM and the TGI [55] was over 75.5 µM. For the same molecule, the TGI [56] was over 100 µM, the TGI [57] was over 75.3 µM and the TGI [58] was over 71.2 µM.

NNC(=O)CC(=O)Nc1ccc(Cl)cc1 showed a TGI [1] of over 100 µM, a TGI [2] of over 100 µM and a TGI [3] of over 100 µM. It also gave a TGI [4] of over 100 µM, a TGI [5] of over 100 µM and a TGI [6] of over 100 µM. It also gave a TGI [7] of over 100 µM, a TGI [8] of over 100 µM and a TGI [9] of over 100 µM. The TGI [10] was over 100 µM, the TGI [11] was over 100 µM and the TGI [12] was over 100 µM. For the same molecule, the TGI [13] was over 100 µM, the TGI [14] was over 100 µM and the TGI [15] was over 100 µM. The TGI [16] was over 100 µM, the TGI [17] was over 100 µM and the TGI [18] was over 100 µM. For the same molecule, the TGI [19] was over 100 µM, the TGI [20] was over 100 µM and the TGI [21] was over 100 µM. It also gave a TGI [22] of over 100 µM, a TGI [23] of over 100 µM and a TGI [24] of over 100 µM. It also gave a TGI [25] of over 100 µM, a TGI [26] of over 100 µM and a TGI [27] of over 100 µM. The TGI [28] was over 100 µM, the TGI [29] was over 100 µM and the TGI [30] was over 100 µM. For the same molecule, the TGI [31] was over 100 µM, the TGI [32] was over 100 µM and the TGI [33] was over 100 µM. For the same molecule, the TGI [34] was over 100 µM, the TGI [35] was over 100 µM and the TGI [59] was over 100 µM. The TGI [36] was over 100 µM, the TGI [37] was over 100 µM and the TGI [38] was over 100 µM. For the same molecule, the TGI [40] was over 100 µM, the TGI [41] was over 100 µM and the TGI [42] was over 100 µM. The TGI [43] was over 100 µM, the TGI [44] was over 100 µM and the TGI [45] was over 100 µM. The TGI [46] was over 100 µM, the TGI [47] was over 100 µM and the TGI [48] was over 100 µM. It also gave a TGI [49] of over 100 µM, a TGI [50] of over 100 µM and a TGI [51] of over 100 µM. The TGI [52] was over 100 µM, the TGI [53] was over 100 µM and the TGI [54] was over 100 µM. For the same molecule, the TGI [55] was over 100 µM, the TGI [56] was over 100 µM and the TGI [57] was over 100 µM. For the same molecule, the TGI [58] was over 100 µM.
